Test results taken from US20230374073A1, “DIMERIC MILLA IMMUNOMODULATORS” (Bristol-Myers Squibb Company, priority 2020, published 2023).
Starred links: 1 amine or outer side, 2 acyl side, 3 side chain; linkers in the order of their positions; H or OH if unused. Positions of bridges follow the written chain, without caps; N, C: chain ends. Non-standard residues stand in square brackets, D forms with d. Residues, ends and D or L forms follow the SMILES beside them. Chains are numbered I, II in the order given. Trp(1-CH2COOH) = N[C@@H](Cc1cn(CC(=O)O)c2ccccc12)C(=O)O; X1 = O=C(NC1CCC(CC2CCC(NC(=O)[*:2])CC2)CC1)[*:1]; Hyp = O=C(O)[C@@H]1C[C@@H](O)CN1; NMeNle = CCCC[C@H](NC)C(=O)O; NMeA = CN[C@@H](C)C(=O)O; Dab = NCC[C@H](N)C(=O)O; Dap = NC[C@H](N)C(=O)O

Molecular target: T1, PD-1/PD-L1 (Homo sapiens, UniProt Q9NZQ7)
T1 construct: TVMV protease site (C); made in house; host or cells: HEK293T cells
Assay: PD-1/PD-L1 Homogenous Time-Resolved Fluorescence (HTRF) binding assay
Description: The ability of the compounds of formula (I) to bind to PD-L1 was investigated using a PD-1/PD-L1 Homogenous Time-Resolved Fluorescence (HTRF) binding assay.
Homogenous Time-Resolved Fluorescence (HTRF) Binding Assay
The interaction of PD-1 and PD-L1 can be assessed using soluble, purified preparations of the extracellular domains of the two proteins. The PD-1 and PD-L1 protein extracellular domains were expressed as fusion proteins with detection tags, for PD-1, the tag was the Fc portion of Immunoglobulin (PD-1-Ig) and for PD-L1 it was the 6 histidine motif (PD-L1-His). All binding studies were performed in an HTRF assay buffer consisting of dPBS supplemented with 0.1% […] bovine serum albumin and 0.05% (v/v) Tween-20. For the h/PD-L1-His binding assay, inhibitors were pre-incubated with PD-L1-His (10 nM final) for 15 m in 4 μl of assay buffer, followed by addition of PD-1-Ig (20 nM final) in 1 μl of assay buffer and further incubation for 15 m. HTRF detection was achieved using europium crypate-labeled anti-Ig (1 nM final) and allophycocyanin (APC) labeled anti-His (20 nM final). Antibodies were diluted in HTRF detection buffer and 5 μl was dispensed on top of the binding reaction. […]
Table 1 lists the IC50 values for representative examples of this disclosure measured in the PD-1/PD-L1 Homogenous Time-Resolved Fluorescence (HTRF) binding assay.

T1 sequence (Q9NZQ7 18-239): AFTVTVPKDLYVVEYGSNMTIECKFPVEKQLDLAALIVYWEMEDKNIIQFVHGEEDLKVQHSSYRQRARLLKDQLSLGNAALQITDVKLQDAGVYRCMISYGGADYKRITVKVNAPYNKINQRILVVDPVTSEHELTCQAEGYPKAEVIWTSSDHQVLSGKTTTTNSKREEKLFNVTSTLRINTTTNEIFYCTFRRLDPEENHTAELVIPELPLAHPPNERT

CCCC[C@H]1C(=O)N(C)[C@@H](CCCC)C(=O)N[C@@H](CC(C)C)C(=O)N[C@H](C(=O)NCC(N)=O)CSCC(=O)N[C@@H](Cc2ccc(O)cc2)C(=O)N(C)[C@@H](C)C(=O)N[C@@H](CC(N)=O)C(=O)N2CCC[C@H]2C(=O)N[C@@H](CNC(=O)NC2CCC(CC3CCC(NC(=O)NC[C@@H]4NC(=O)[C@@H]5CCCN5C(=O)[C@H](CC(N)=O)NC(=O)[C@H](C)N(C)C(=O)[C@H](Cc5ccc(O)cc5)NC(=O)CSC[C@@H](C(=O)NCC(N)=O)NC(=O)[C@H](CC(C)C)NC(=O)[C@H](CCCC)N(C)C(=O)[C@H](CCCC)N(C)C(=O)[C@H](Cc5cn(CC(=O)O)c6ccccc56)NC(=O)[C@H](CCN)NC(=O)[C@H](Cc5c[nH]c6ccccc56)NC(=O)[C@@H]5C[C@@H](O)CN5C(=O)[C@H](CC(C)C)NC4=O)CC3)CC2)C(=O)N[C@@H](CC(C)C)C(=O)N2C[C@H](O)C[C@H]2C(=O)N[C@@H](Cc2c[nH]c3ccccc23)C(=O)N[C@@H](CCN)C(=O)N[C@@H](Cc2cn(CC(=O)O)c3ccccc23)C(=O)N1C (stereo partly shown) [Compound 1002] (I: {CH2CO}-Y[NMeA]NP[Dap]L[Hyp]W[Dab][Trp(1-CH2COOH)][NMeNle][NMeNle]LCG-NH2 / II: {CH2CO}-Y[NMeA]NP[Dap]L[Hyp]W[Dab][Trp(1-CH2COOH)][NMeNle][NMeNle]LCG-NH2; linker I:5-II:5 via X1; thioether I:N-I:14, II:N-II:14)
IC50: 10 nM
